Article PMC5944028, “Nonclinical and clinical pharmacological characterization of the potent and selective cathepsin K inhibitor MIV-711” (Journal of Translational Medicine, 2018)

How the values were obtained:
urine CTX-II = test: Monkey urine CTX-II, multiple doses; type: in vivo, cynomolgus monkeys (Macaca fascicularis)
Procedure: Biomarkers such as NTX-I (bone resorption) and CTX-II (cartilage degradation) are typically measured in urine. Additional experiments in which urine was collected were therefore performed. In these experiments, four cynomolgus monkeys (Macaca fascicularis) were used (Aptuit, Edinburgh, UK). The animals were healthy young females weighing 3.5–4 kg. Animals were dosed with vehicle or MIV-711 via oral gavage at a dose volume of 5 mL/kg between 7:30 and 8:30 a.m. Animals first received vehicle via oral gavage for five consecutive days. After a washout period, the animals then received MIV-711 (30 µmol/kg) via oral gavage for five consecutive days.
Urine was collected between 8–12 a.m., 12 a.m.–4 p.m. and 4 p.m.–8 a.m. on Day 1 and Day 5 of respective treatment. Biomarkers were measured in each urine sample, corrected for creatinine, and the mean value of the three samples on Day 1 and Day 5 was calculated. The effect of MIV-711 was evaluated by comparing biomarkers in urine samples collected on Day 1 and Day 5 with respective vehicle sample. [drawing 3]
The quantification of CTX-I in monkey plasma samples and human serum samples was performed using a commercially available kit (Serum CrossLaps ELISA, IDS Nordic, Herlev, Denmark). The levels of CTX-I in monkey urine samples were measured using a commercially available kit (Urine BETA CrossLaps ELISA, IDS Nordic). […]

dog cathepsin K = molecular target: T1, dog cathepsin K (Canis lupus familiaris, UniProt Q3ZKN1); test: Recombinant enzyme assay, dog cathepsin K; type: biochemical; conditions: geometric mean
T1 construct: made in house; host or cells: E. coli
T1 sequence (Q3ZKN1 116-330): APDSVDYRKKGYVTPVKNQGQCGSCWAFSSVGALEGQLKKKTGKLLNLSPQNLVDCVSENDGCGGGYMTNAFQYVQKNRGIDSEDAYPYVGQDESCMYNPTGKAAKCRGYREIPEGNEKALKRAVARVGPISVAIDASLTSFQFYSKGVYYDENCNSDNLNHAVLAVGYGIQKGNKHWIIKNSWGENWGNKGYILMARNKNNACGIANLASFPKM
Text: (§1) Recombinant cathepsin K enzymes from all species were expressed in E. coli, purified and activated. Human cathepsin F and cathepsin S were expressed in Baculovirus, purified and activated. Purified human cathepsins B and H (Athens Research Technology), cathepsin L (Calbiochem), and cathepsin V (R & D Systems) were purchased.
(§2) H-D-Ala_Leu-Lys-AMC was used as the substrate in assays of cathepsin K from non-rodent species (human, dog, rabbit and guinea pig), and Z-Leu-Arg-AMC was used as the substrate in assays of cathepsin K from rodent species (mouse and rat). […]
(§3) Assays were carried out in white polystyrene 96-well plates in a final volume of 100 µL. […] Plates were read in a Fluoroskan Ascent (Thermo Labsystems, Helsinki, Finland) in kinetic mode, with excitation and emission filters of 390 and 460 nm, respectively. Rates were determined by linear regression of the fluorescence/time data in Excel. Rates were fitted by non-linear regression to either the competitive inhibition equation, with the substrate concentration fixed at the value in the assay and the KM fixed to the value previously determined, or the IC50 equation using GraphPad Prism (GraphPad, version 6, San Diego, USA) to obtain Ki or IC50 values, respectively.

rabbit cathepsin K = molecular target: T2, rabbit cathepsin K (Oryctolagus cuniculus, UniProt P43236); test: Recombinant enzyme assay, rabbit cathepsin K; type: biochemical; conditions: footnote a: IC50
T2 construct: made in house; host or cells: E. coli
T2 sequence (P43236 115-329): as the sequence (Q3ZKN1 116-330) above, with A1T, V5I, D61Y, K77R, I131V, N156S, L160V, N187S counted along it
Text: as §1, §2, §3

serum CTX-I = test: Human serum CTX-I, single ascending dose study; type: in vivo, human healthy subjects
Text: Twenty-seven healthy male and female subjects (18 male and 9 female) of any ethnic origin (24 White, 1 Asian, 1 Black, 1 Black/Caribbean White), aged between 19 and 64 years, and with a body mass index (BMI) between 18.0 and 32.0 kg/m^2, were selected for this study. Inclusion criteria for enrollment followed the standard practice for first-in-man studies.
This was a randomized, double-blind, placebo-controlled, sequential, single-ascending dose study conducted at a single site with the objective of evaluating the safety, tolerability, pharmacokinetics (PK) and pharmacodynamics of MIV-711. Subjects were randomized into 3 groups using a computer-generated pseudo-random permutation procedure. Each group consisted of 9 subjects with at least 3 subjects of each gender per group and subjects participated in 1–2 treatment periods. There was a minimum of 10 days between dose escalations and a minimum of 20 days between dosing occasions for individual subjects. For each subsequent dosing occasion, the decision to escalate the dose to the next level was taken after a thorough review of the safety, tolerability and PK data. In each treatment period, 7 subjects received MIV-711 and 2 received placebo (comprising of 1 subject of each gender). Dosing occurred on the morning of Day 1 following an overnight fast and subjects were kept in the fasted state until approximately 4.5 h after dosing. MIV-711 was given as a combination of 10 or 40 mg hard gelatin capsules, while placebo was given in similar capsules of identical appearance.
Blood samples were collected at pre-dose, 4, 8, 24 and 48 h post-dose and processed into serum for the measurement of CTX-I concentrations.
The quantification of CTX-I in monkey plasma samples and human serum samples was performed using a commercially available kit (Serum CrossLaps ELISA, IDS Nordic, Herlev, Denmark). The levels of CTX-I in monkey urine samples were measured using a commercially available kit (Urine BETA CrossLaps ELISA, IDS Nordic). The quantification of NTX-I in monkey samples was performed using a commercially available kit (Osteomark NTx Urine, Wampole Laboratories, Inc, Princeton, USA). Urinary levels of CTX-II in monkey samples were measured using a commercially available kit (Urine CrossLaps EIA, IDS Nordic). The concentrations of biomarkers in the urine samples were corrected for creatinine concentrations. The creatinine levels in urine were determined at Swedish University of Agricultural Sciences, using the enzymatic assay (cat no. 8L24-01) on the Abbott system Architect c4000.

human cathepsin L = molecular target: T3, human cathepsin L (Homo sapiens, UniProt P07711); test: Enzyme assay, human cathepsin L; type: biochemical; conditions: geometric mean
T3 construct: purchased Calbiochem
T3 sequence (P07711 114-333): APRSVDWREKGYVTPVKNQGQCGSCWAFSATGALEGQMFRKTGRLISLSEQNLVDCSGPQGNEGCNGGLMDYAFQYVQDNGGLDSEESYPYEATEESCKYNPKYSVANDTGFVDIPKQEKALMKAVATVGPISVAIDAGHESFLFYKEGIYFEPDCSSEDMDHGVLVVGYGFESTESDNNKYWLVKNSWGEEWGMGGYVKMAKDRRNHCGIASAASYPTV
Text: as §1, §2, §3

C#C[C@@H]1CN(C(=O)[C@H](CC(C)C)NC(=O)c2ccc(-c3nc(N4CCN(C)CC4)sc3F)cc2)[C@@H]2C(=O)CO[C@H]12 [MIV-711]
Reduction of urinary CTX-II compared to vehicle (urine CTX-II; 30 µmol/kg p.o. once daily for 5 days, creatinine-corrected): 71%
Effect on urinary CTX-II compared to vehicle (urine CTX-II; single dose 30 µmol/kg p.o. (Day 1)): unaffected
Ki (dog cathepsin K): 1.5 nM
IC50 (rabbit cathepsin K): 3.3 nM
Inhibition of serum CTX-I versus baseline at 24 h (serum CTX-I; 20 mg single dose): 20%
Reduction of CTX-I at 24 h post-dose (serum CTX-I; 100 mg single dose): 54%
Inhibition of serum CTX-I versus baseline at 24 h (serum CTX-I; 600 mg single dose): 79%
Exposure required for 50% reduction of CTX-I at 24 h post dose (serum CTX-I; AUC0–24h): 1.3 µmol/L/h
Ki (human cathepsin L): 1700 nM
